Data taken from patent publication US20120214802A1, “PYRROLIDINE COMPOUNDS WHICH INHIBIT BETA-SECRETASE ACTIVITY AND METHODS OF USE THEREOF” (priority 2009, published 2012).

Assays:
[1] = target: memapsin 2 (Homo sapiens, UniProt P56817); assay: Inhibition of memapsin 2 beta-secretase activity (fluorogenic substrate FS-2); assay type: biochemical; settings: pH 4, 37° C., read-out: M2 Ki
Description: Potency of compounds were determined by measurement of their inhibition of memapsin 2 activity toward a fluorescent substrate. Kinetic inhibition experiments were performed using the procedure as described in Ermolieff, et al. (Biochemistry 39:12450-12456 (2000), the teachings of which are incorporated hereby in their entirety). Briefly, assays were performed at pH 4, 37° C., by pre-incubation of memapsin 2 enzyme with compound for 20 minutes. Activity measurements were initiated by addition of a fluorogenic substrate FS-2 (Bachem Americas, Torrance, Calif.) MCA-SEVNLDAEFR-DNP (SEQ ID NO.: 2). The substrate was derived from 10 amino acids of the human amyloid precursor protein (APP), with the Swedish variant amino acids at the beta-secretase cleavage site. The terminal amino acid was modified from arginine to lysine to facilitate derivatization with a functional group for detection by autofluorescence. The amino acid sequence of the “core” peptide of the substrate is SEVNLDAEFK (SEQ ID NO.: 3). The amino terminus was derivatized with (7-methoxycoumarin-4-yl)acetyl (MCA), and the epsilon amine of the lysine side chain of the terminal residue (K in sequence SEVNLDAEFK (SEQ ID NO.: 3)) was derivatized with 2,4-dinitorphenyl (DNP).

[2] = target: T1, memapsin 2 (Cricetulus griseus, UniProt G3IAK4); assay: Cellular Aβ IC50 determination (Aβ40 sandwich ELISA); assay type: cell-based, Chinese hamster; settings: CHO cells over-expressing human APP695 with London and Swedish mutations, 24 h, read-out: M2 IC50
T1 construct: endogenous in cells; host or cells: Chinese hamster ovary cells over-expressing human APP695 (London + Swedish)
Description: The potency of compounds against memapsin 2 activity was determined in a cellular assay of Aβ production. […] Chinese hamster ovary cells that over-express human APP695 with the London and Swedish mutations were seeded in multi-well plates at 10% confluency. Compounds are dissolved in DMSO to concentrations near 1 mM, and diluted into culture media to a final concentration near 4 μM (final 0.4% DMSO). Compounds were diluted serially and applied to cells in multi-well plates 48 h after seeding. Incubation was continued in 5% CO2 at 37° C. for 24 h. Aliquots were removed and assayed for […] using a sandwich ELISA (BioSource International). Amount of Aβ40 over the range of concentration of compounds, relative to control incubations, were fit to a 4-parameter IC50 model.

Sequence of memapsin 2 (Homo sapiens, UniProt P56817) (P56817 46-501): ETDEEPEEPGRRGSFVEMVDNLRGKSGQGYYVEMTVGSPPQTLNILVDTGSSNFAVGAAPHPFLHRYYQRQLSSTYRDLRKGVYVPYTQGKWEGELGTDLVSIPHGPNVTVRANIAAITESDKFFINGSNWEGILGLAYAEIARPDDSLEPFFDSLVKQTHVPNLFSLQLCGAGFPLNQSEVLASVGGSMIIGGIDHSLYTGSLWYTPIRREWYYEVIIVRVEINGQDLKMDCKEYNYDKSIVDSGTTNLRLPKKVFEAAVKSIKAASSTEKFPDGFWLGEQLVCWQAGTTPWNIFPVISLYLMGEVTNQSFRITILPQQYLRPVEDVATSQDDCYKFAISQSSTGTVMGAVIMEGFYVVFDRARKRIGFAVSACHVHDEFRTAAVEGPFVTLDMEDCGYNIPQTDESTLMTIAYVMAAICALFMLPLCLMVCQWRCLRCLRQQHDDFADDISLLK
T1 sequence (G3IAK4 22-501): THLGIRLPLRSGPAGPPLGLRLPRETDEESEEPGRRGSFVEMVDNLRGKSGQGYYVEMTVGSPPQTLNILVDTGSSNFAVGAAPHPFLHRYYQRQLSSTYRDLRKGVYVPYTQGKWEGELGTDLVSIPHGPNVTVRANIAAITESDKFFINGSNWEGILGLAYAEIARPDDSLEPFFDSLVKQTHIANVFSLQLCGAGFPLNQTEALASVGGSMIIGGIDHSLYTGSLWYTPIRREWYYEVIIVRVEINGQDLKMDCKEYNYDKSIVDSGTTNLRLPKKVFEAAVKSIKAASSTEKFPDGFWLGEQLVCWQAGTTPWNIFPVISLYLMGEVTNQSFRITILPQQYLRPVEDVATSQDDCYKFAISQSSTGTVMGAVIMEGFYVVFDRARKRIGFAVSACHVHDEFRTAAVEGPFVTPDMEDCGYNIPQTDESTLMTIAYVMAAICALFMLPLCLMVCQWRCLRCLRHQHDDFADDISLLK

Structure (SMILES) | Ki [1] | IC50 [2]
C[C@@H](NC(=O)c1cc(C(=O)N[C@@H](Cc2ccccc2)[C@H](O)[C@H]2CCCN2C(=O)OC(C)(C)C)cc(N(C)S(C)(=O)=O)c1)c1ccccc1 [1-5, (R)-tert-butyl 2-((1S,2S)-1-hydroxy-2-(3-(N-methylmethylsulfonamido)-5-((R)-1-phenylethylcarbamoyl)benzamido)-3-phenylpropyl)pyrrolidine-1-carboxylate] | > 750 nM | > 1000 nM
Cc1cc(C(=O)N[C@@H](Cc2ccccc2)[C@H](O)[C@H]2CCCN2C(=O)OC(C)(C)C)cc(C(=O)N2CCC[C@@H]2c2nc(C)co2)c1 [1-6, (R)-tert-butyl 2-((1S,2S)-1-hydroxy-2-(3-methyl-5-((R)-2-(4-methyloxazol-2-yl)pyrrolidine-1-carbonyl)benzamido)-3-phenylpropyl)pyrrolidine-1-carboxylate] | > 750 nM | > 1000 nM
Cc1csc(CN(C)C(=O)c2cc(C(=O)N[C@@H](Cc3ccccc3)[C@H](O)[C@H]3CCCN3C(=O)OC(C)(C)C)cc(-c3ncco3)c2)n1 [1-7, (R)-tert-butyl 2-((1S,2S)-1-hydroxy-2-(3-(methyl((4-methylthiazol-2-yl)methyl)carbamoyl)-5-(oxazol-2-yl)benzamido)-3-phenylpropyl)pyrrolidine-1-carboxylate] | > 750 nM | > 1000 nM
Cc1csc(CN(C)C(=O)c2cc(C(=O)N[C@@H](Cc3ccccc3)[C@H](O)[C@H]3CCCN3)cc(N(C)S(C)(=O)=O)c2)n1 [1-27, N1-((1R,2S)-1-hydroxy-3-phenyl-1-((R)-pyrrolidin-2-yl)propan-2-yl)-N3-methyl-5-(N-methylmethylsulfonamido)-N3-((4-methylthiazol-2-yl)methyl)isophthalamide] | 250 to 750 nM | < 500 nM
Cc1csc([C@H]2CCCN2C(=O)c2cc(C(=O)N[C@@H](Cc3ccccc3)[C@H](O)[C@H]3CCCN3)cc(N(C)C)c2)n1 [1-42, 3-(dimethylamino)-N-((1R,2S)-1-hydroxy-3-phenyl-1-((R)-pyrrolidin-2-yl)propan-2-yl)-5-((R)-2-(4-methylthiazol-2-yl)pyrrolidine-1-carbonyl)benzamide] | 250 to 750 nM | > 1000 nM
Cc1csc([C@H]2CCCN2C(=O)c2cc(CF)cc(C(=O)N[C@H](Cc3ccccc3)[C@H](O)[C@H]3C[C@@H](OCc4ccccc4)CN3)c2)n1 [1-45, N-((1R,2R)-1-((2R,4R)-4-(benzyloxy)pyrrolidin-2-yl)-1-hydroxy-3-phenylpropan-2-yl)-3-(fluoromethyl)-5-((R)-2-(4-methylthiazol-2-yl)pyrrolidine-1-carbonyl)benzamide] | > 750 nM | > 1000 nM

The next lines start with the values.

Ki [1] | IC50 [2] | Structure (SMILES)
250 to 750 nM | > 1000 nM | Cc1csc(CN(C)C(=O)c2cccc(C(=O)N[C@@H](Cc3ccccc3)[C@H](O)[C@H]3C[C@@H](O)CN3)c2)n1 [1-10, N1-((1R,2S)-1-hydroxy-1-((2R,4R)-4-hydroxypyrrolidin-2-yl)-3-phenylpropan-2-yl)-N3-methyl-N3-((4-methylthiazol-2-yl)methyl)isophthalamide]
< 250 nM | < 500 nM | Cc1coc([C@H]2CCCN2C(=O)c2cc(C(=O)N[C@@H](Cc3ccccc3)[C@H](O)[C@H]3CCCN3)cc(-c3cnccn3)c2)n1 [1-21, N-((1R,2S)-1-hydroxy-3-phenyl-1-((R)-pyrrolidin-2-yl)propan-2-yl)-3-((R)-2-(4-methyloxazol-2-yl)pyrrolidine-1-carbonyl)-5-(pyrazin-2-yl)benzamide]
< 250 nM | < 500 nM | Cc1coc([C@H]2CCCN2C(=O)c2cc(C(=O)N[C@@H](Cc3ccccc3)[C@H](O)[C@H]3CCCN3)cc(-c3ccccn3)c2)n1 [1-24, N-((1R,2S)-1-hydroxy-3-phenyl-1-((R)-pyrrolidin-2-yl)propan-2-yl)-3-((R)-2-(4-methyloxazol-2-yl)pyrrolidine-1-carbonyl)-5-(pyridin-2-yl)benzamide]
